As usually defined, the plant injury is how far the test organism was held down. High values mean a strong effect, low ones a weak effect. A word on the pest or weed control: it is the degree to which the test organism was suppressed or injured, in per cent. Low values mean weak suppression, high ones strong suppression.

What all share (type): in vivo
Assay [1] relates to Field Corn. Description: Postemergence Herbicidal Activity, Field Corn. Particulars: Zea mays, post-emergence; for plant injury at 2000 g/ha: 2.0 kg/ha. The gist of the method: (§1)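 Compounds were applied at rates given in kilograms per hectare, and herbicidal effect was scored as percent control.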
Assay [2] concerns Green Foxtail. Description: Postemergence Herbicidal Activity, Green Foxtail. Particulars: Setaria viridis, post-emergence; for pest or weed control at 2000 g/ha: 2.0 kg/ha. The gist of the method:
(§2)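 Efficacy is recorded as percent control at each application rate, expressed in kg/ha.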

In assay [3] the test system is Morningglory. The assay is described as follows: Postemergence Herbicidal Activity, Morningglory. Particulars: Ipomoea, post-emergence; for pest or weed control at 2000 g/ha: 2.0 kg/ha. A digest of the protocol: (§3)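 Applications are made pre- or postemergence from 50/50 acetone/water solutions of each compound. Effect is recorded as % C at the stated kg/ha rate.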
The test system of assay [4] is Cotton. The assay is described as follows: Postemergence Herbicidal Activity, Cotton. Particulars: Gossypium hirsutum, post-emergence; for plant injury at 2000 g/ha: 2.0 kg/ha. The gist of the method:
as §3

The test system of assay [5] is Rice. Description: Postemergence Herbicidal Activity, Rice. The note with it: Oryza sativa, post-emergence; for plant injury at 2000 g/ha: 2.0 kg/ha. A digest of the protocol:
as §1

Assay [6] relates to Soybean. The assay is described as follows: Postemergence Herbicidal Activity, Soybean. The note with it: Glycine max, post-emergence; for plant injury at 2000 g/ha: 2.0 kg/ha. The gist of the method: as §1
The test system of assay [7] is Barnyardgrass. Description: Preemergence Herbicidal Activity, Barnyardgrass. The note with it: Echinochloa crus-galli, pre-emergence; for pest or weed control at 2000 g/ha: 2.0 kg/ha. A digest of the protocol:
as §2

Assay [8] relates to Soybean. The assay is described as follows: Preemergence Herbicidal Activity, Soybean. Particulars: Glycine max, pre-emergence; for plant injury at 2000 g/ha: 2.0 kg/ha. A digest of the protocol:
as §1

For assay [9], the system named is Wheat. The assay is described as follows: Preemergence Herbicidal Activity, Wheat. Particulars: Triticum aestivum, pre-emergence; for plant injury at 2000 g/ha: 2.0 kg/ha. The gist of the method:
as §1

Assay [10] deals with Rice. The assay is described as follows: Preemergence Herbicidal Activity, Rice. The note with it: Oryza sativa, pre-emergence; for plant injury at 2000 g/ha: 2.0 kg/ha. The gist of the method: as §1
For assay [11], the system named is Morningglory. Description: Preemergence Herbicidal Activity, Morningglory. The note with it: Ipomoea, pre-emergence; for pest or weed control at 2000 g/ha: 2.0 kg/ha. A digest of the protocol: as §3
The test system of assay [12] is Field Bindweed. Description: Postemergence Herbicidal Activity, Field Bindweed. Particulars: post-emergence; for pest or weed control at 2000 g/ha: 2.0 kg/ha. A digest of the protocol: as §3
In assay [13] the test system is Cotton. The assay is described as follows: Preemergence Herbicidal Activity, Cotton. The note with it: Gossypium hirsutum, pre-emergence; for plant injury at 2000 g/ha: 2.0 kg/ha. A digest of the protocol: as §3
Assay [14] relates to Field Bindweed. Description: Preemergence Herbicidal Activity, Field Bindweed. Particulars: pre-emergence; for pest or weed control at 2000 g/ha: 2.0 kg/ha. The gist of the method: as §3
Assay [15] concerns Green Foxtail. The assay is described as follows: Preemergence Herbicidal Activity, Green Foxtail. Particulars: Setaria viridis, pre-emergence; for pest or weed control at 2000 g/ha: 2.0 kg/ha. A digest of the protocol: as §2
The test system of assay [16] is Wheat. Description: Postemergence Herbicidal Activity, Wheat. The note with it: Triticum aestivum, post-emergence; for plant injury at 2000 g/ha: 2.0 kg/ha. A digest of the protocol:
as §1

The test system of assay [17] is Field Corn. The assay is described as follows: Preemergence Herbicidal Activity, Field Corn. Particulars: Zea mays, pre-emergence; for plant injury at 2000 g/ha: 2.0 kg/ha. A digest of the protocol:
as §1

Assay [18] deals with Johnsongrass. The assay is described as follows: Preemergence Herbicidal Activity, Johnsongrass. Particulars: Sorghum halepense, pre-emergence; for pest or weed control at 2000 g/ha: 2.0 kg/ha. The gist of the method:
as §2

Assay [19] has as its system Velvetleaf. The assay is described as follows: Preemergence Herbicidal Activity, Velvetleaf. The note with it: Abutilon theophrasti, pre-emergence; for pest or weed control at 2000 g/ha: 2.0 kg/ha. A digest of the protocol:
as §3

Assay [20] concerns Johnsongrass. The assay is described as follows: Postemergence Herbicidal Activity, Johnsongrass. The note with it: Sorghum halepense, post-emergence; for pest or weed control at 2000 g/ha: 2.0 kg/ha. A digest of the protocol:
as §2

For assay [21], the system named is Velvetleaf. The assay is described as follows: Postemergence Herbicidal Activity, Velvetleaf. Particulars: Abutilon theophrasti, post-emergence; for pest or weed control at 2000 g/ha: 2.0 kg/ha. The gist of the method:
as §3

For assay [22], the system named is Barnyardgrass. The assay is described as follows: Postemergence Herbicidal Activity, Barnyardgrass. Particulars: Echinochloa crus-galli, post-emergence; for pest or weed control at 2000 g/ha: 2.0 kg/ha. The gist of the method:
as §2

Structures can show the parent of a compound that is named as a salt.

For `O=c1n(CCCF)nnn1-c1cc(NS(=O)(=O)C(F)(F)F)c(Cl)cc1F` [Compound 32, 1-[4-Chloro-2-fluoro-5-(N--trifluoromethylsulfonylamino)phenyl]-1,4-dihydro-4-(3-fluoropropyl)-5H--tetrazol-5-one potassium salt], the plant injury at 2000 g/ha in [1] worked out at 70%; in assay [4], 100%; in [5], 40%; in assay [6] it was 100%; in assay [8], 40%; in [9] it was 10%. In addition, the plant injury at 2000 g/ha stood at 95% in assay [10], 100% in assay [13], 40% in [16] and 50% in assay [17]. Also, the pest or weed control at 2000 g/ha in assay [2] was found to be 40%; in [3], 100%; in assay [7], 95%; in assay [11], 100%; in assay [12], 100%; in [14] it was 100%. Further, the pest or weed control at 2000 g/ha in assay [15] is 60%; in [18], 80%; in [19], 100%; in [20], 70%; in assay [21] it was 100%; in [22], 70%.

Consider `CS(=O)(=O)Nc1cc(-n2nnn(CCCF)c2=O)c(F)cc1Br` [Compound 33, 1-[4-Bromo-2-fluoro-5-(N--methylsulfonylamino)phenyl]-1,4-dihydro-(3-fluoropropyl)-5H--tetrazol-5-one], for which the plant injury at 250 g/ha in assay [1] (0.25 kg/ha) was 30%; in [4] (0.25 kg/ha) it was 100%; in [5] (0.25 kg/ha) it was 80%; in [6] (0.25 kg/ha) it was 70%; in assay [8] (0.25 kg/ha), 10%; in assay [9] (0.25 kg/ha) it was 20%. The plant injury at 250 g/ha came to 80% in assay [10] (0.25 kg/ha), 100% in [13] (0.25 kg/ha), 40% in [16] (0.25 kg/ha) and 40% in assay [17] (0.25 kg/ha). Besides, the pest or weed control at 250 g/ha worked out at 100% in [2] (0.25 kg/ha); 100% in assay [3] (0.25 kg/ha); 95% in [7] (0.25 kg/ha); 100% in assay [11] (0.25 kg/ha); 100% in [12] (0.25 kg/ha); 100% in assay [14] (0.25 kg/ha). Moreover, the pest or weed control at 250 g/ha in assay [15] (0.25 kg/ha) was 70%; in assay [18] (0.25 kg/ha) it was 70%; in [19] (0.25 kg/ha), 100%; in [20] (0.25 kg/ha), 70%; in assay [21] (0.25 kg/ha) it was 100%; in assay [22] (0.25 kg/ha), 80%.

Turning to `O=c1n(CCCF)nnn1-c1cc(NS(=O)(=O)C(F)(F)F)c(Cl)cc1Cl` [Compound 35, 1-[2,4-Dichloro-5-(N--trifluoromethylsulfonylamino)phenyl]-4,5-dihydro-4-(3-fluoropropyl)-5H--tetrazol-5-one], the plant injury at 4000 g/ha in assay [1] (4.0 kg/ha) came to 70%; in [4] (4.0 kg/ha), 100%; in assay [5] (4.0 kg/ha), 80%; in assay [6] (4.0 kg/ha) it was 100%; in [8] (4.0 kg/ha), 80%; in assay [9] (4.0 kg/ha), 70%. Besides, the plant injury at 4000 g/ha stood at 95% in assay [10] (4.0 kg/ha), 100% in [13] (4.0 kg/ha), 40% in assay [16] (4.0 kg/ha) and 50% in assay [17] (4.0 kg/ha). In addition, the pest or weed control at 4000 g/ha came out at 100% in [2] (4.0 kg/ha); 100% in assay [3] (4.0 kg/ha); 90% in [7] (4.0 kg/ha); 100% in [11] (4.0 kg/ha); 95% in assay [12] (4.0 kg/ha); 100% in assay [14] (4.0 kg/ha). Moreover, the pest or weed control at 4000 g/ha in [15] (4.0 kg/ha) amounted to 100%; in assay [18] (4.0 kg/ha), 95%; in [19] (4.0 kg/ha), 100%; in assay [20] (4.0 kg/ha), 90%; in assay [21] (4.0 kg/ha), 100%; in assay [22] (4.0 kg/ha) it was 70%.

Regarding `CS(=O)(=O)N(c1cc(-n2nnn(CCCF)c2=O)c(Cl)cc1F)S(C)(=O)=O` [Compound 36, 1-[2-Chloro-4-fluoro-5-[bis-(N--methylsulfonyl)amino]phenyl]-4,5-dihydro-4-(3-fluoropropyl)-5H--tetrazol-5-one], the plant injury at 2000 g/ha was found to be 10% in assay [1]; 70% in assay [4]; 10% in [5]; 10% in [6]; 0% in assay [8]; 0% in [9]. For the same molecule, the plant injury at 2000 g/ha turned out to be 0% in assay [10], 70% in assay [13], 10% in [16] and 70% in [17]. For the same molecule, the pest or weed control at 2000 g/ha in assay [2] was 50%; in assay [3], 80%; in [7] it was 70%; in assay [11], 90%; in assay [12] it was 60%; in [14], 100%. Further, the pest or weed control at 2000 g/ha in assay [15] was found to be 50%; in assay [18], 40%; in assay [19], 95%; in [20], 50%; in [21], 90%; in [22], 50%.

On to `CCS(=O)(=O)N(c1cc(-n2nnn(CCCF)c2=O)c(Cl)cc1F)S(=O)(=O)CC` [Compound 37, 1-[2-Chloro-4-fluoro-5-[bis(N--ethylsulfonyl)amino]phenyl]-4,5-dihydro-4-(3-fluoropropyl)-5H--tetrazol-5-one], for which the plant injury at 2000 g/ha in assay [1] is 20%; in assay [4] it was 70%; in [5] it was 20%; in assay [6], 40%; in assay [8], 0%; in [9], 30%. Also, the plant injury at 2000 g/ha came to 0% in assay [10], 10% in assay [13], 20% in assay [16] and 20% in [17]. Also, the pest or weed control at 2000 g/ha in assay [2] turned out to be 50%; in assay [3], 50%; in [7] it was 80%; in [11], 20%; in assay [12], 40%; in assay [14], 20%. For the same molecule, the pest or weed control at 2000 g/ha was 50% in assay [15]; 70% in [18]; 100% in assay [19]; 20% in assay [20]; 80% in assay [21]; 30% in [22].

Values taken from patent US4868321A, “Isothiocyanate intermediates” (FMC Corporation, priority 1988, dated 1989).
